Results on 23 molecules are retold here after US6407103B2, “Indeno [1,2-c] pyrazol-4-ones and their uses” (Bristol-Myers Squibb Pharma Company, priority 1998, dated 2002).

Structures are written as SMILES. Structures can show the parent of a compound that is named as a salt. Bounds are passed on as bounds.

A word on the melting point: it is the temperature, or range, at which the solid turns liquid. Consider `COc1ccc(-c2[nH]nc3c2C(=O)c2c(NC(=O)CN4CCN(c5ccccn5)CC4)cccc2-3)cc1` [Example LXX, 3-(4-methoxyphenyl)-5-(4-(2-pyridyl)piperazinoacetamido)indeno[1,2-c]pyrazol-4-one], for which the melting point was greater than 300 °C. For `COC[C@H]1CCCN1C(=O)c1ccc(-c2[nH]nc3c2C(=O)c2c(NC(=O)NN4CCOCC4)cccc2-3)s1` (as salt: TFA) [Example CLXXXVI, 3-(5-(2(R)-(methoxymethyl)pyrrolidinocarbonyl)-2-thienyl)-5-(morpholinocarbamoylamino)indeno[1,2-c]pyrazol-4-one] the value was 262 °C.

For the molecule `CCN1CCN(C(=O)c2ccc(-c3[nH]nc4c3C(=O)c3c(NC(=O)NN5CCOCC5)cccc3-4)s2)CC1` (as salt: TFA) [Example CLI, 3-(5-(4-ethylpiperazinocarbonyl)-2-thienyl)-5-(morpholinocarbamoylamino)indeno[1,2-c]pyrazol-4-one], the melting point was found to be 186 °C. Molecule `CCN1CCN(c2ccc(-c3[nH]nc4c3C(=O)c3c(NC(=O)NN5CCOCC5)cccc3-4)cc2)CC1` (as salt: TFA) [Example CCXIX, 3-(4-(4-ethylpiperazino)phenyl)-5-(morpholinocarbamoylamino)indeno[1,2-c]pyrazol-4-one] gave a melting point of 245 °C. The molecule `COc1ccc(-c2[nH]nc3c2C(=O)c2c(NC(=O)Cc4ccccc4OC)cccc2-3)cc1` [Example XIX, 3-(4-methoxyphenyl)-5-((2-methoxyphenyl)acetamido)indeno[1,2-c]pyrazol-4-one] returned a melting point of 255 °C. `O=C(Nc1cccc2c1C(=O)c1c-2n[nH]c1-c1ccc(N2CCC(N3CCCCC3)CC2)cc1)NN1CCOCC1` (as salt: TFA) [Example CCL, 3-(4-(4-piperidinopiperidino)phenyl)-5-(morpholinocarbamoylamino)indeno[1,2-c]pyrazol-4-one] yielded a melting point of 233 °C. Molecule `O=C(Nc1cccc2c1C(=O)c1c-2n[nH]c1C1CCN(C(=O)N2CCNCC2)CC1)NN1CCOCC1` (as salt: TFA) [Example CCLXX, 3-(1-(piperazinocarbonyl)piperidin-4-yl)-5-(morpholinocarbamoylamino)indeno[1,2-c]pyrazol-4-one] had a melting point of 195 °C.

`CCCC(=O)Nc1cccc2c1C(=O)c1c-2n[nH]c1-c1ccc(OC)cc1` [Example IX, 3-(4-methoxyphenyl)-5-(butanamido)indeno[1,2-c]pyrazol-4-one] registered a melting point of 282 °C. For the molecule `O=C(Nc1cccc2c1C(=O)c1c-2n[nH]c1-c1ccc(C(=O)N2CCC[C@H]2CO)s1)NN1CCOCC1` (as salt: TFA) [Example CLXXXV, 3-(5-(2(S)-(hydroxymethyl)pyrrolidinocarbonyl)-2-thienyl)-5-(morpholinocarbamoylamino)indeno[1,2-c]pyrazol-4-one], the melting point is 267 °C.

On to `COc1ccccc1-c1[nH]nc2c1C(=O)c1c(NC(C)=O)cccc1-2` [Example XV, 3-(2-methoxyphenyl)-5-(acetamido)indeno[1,2-c]pyrazol-4-one], for which the melting point came to 276 °C. For `COc1ccc(-c2[nH]nc3c2C(=O)c2c(NC(=O)Cc4ccc(NC(=O)CN(C)C)cc4)cccc2-3)cc1` [Example XXXIX, 3-(4-methoxyphenyl)-5-((4-((N,N-dimethylamino)methylcarbonylamino)phenyl)acetamido) indeno[1,2-c]pyrazol-4-one], the melting point is greater than 300 °C.

Take `COC[C@H]1CCCN1NC(=O)Nc1cccc2c1C(=O)c1c-2n[nH]c1-c1ccc(C(=O)N2CCN(C(=O)OC(C)(C)C)CC2)s1` (as salt: TFA) [Example CCV, 3-(5-(4-(t-butoxycarbonyl)piperazinocarbonyl)-2-thienyl)-5-(2(R)-(methoxymethyl)pyrrolidinocarbamoylamino)indeno[1,2-c]pyrazol-4-one]: the melting point is greater than 300 °C.

For `O=C(Nc1cccc2c1C(=O)c1c-2n[nH]c1[C@H]1CC[C@H](C(=O)O)CC1)NN1CCOCC1` (as salt: TFA) [Example CCC, 3-(trans-4-carboxylcyclohexyl)-5-(morpholinocarbamoylamino)indeno[1,2-c]pyrazol-4-one], the melting point worked out at 264 °C. The molecule `Cn1ccc(-c2[nH]nc3c2C(=O)c2c(NC(N)=O)cccc2-3)c1` [Example CXII, 3-(1-methyl-3-pyrrolyl)-5-(carbamoylamino)indeno[1,2-c]pyrazol-4-one] had a melting point greater than 300 °C. Regarding `CN(C)C1CCN(C(=O)c2ccc(-c3[nH]nc4c3C(=O)c3c(NC(=O)NN5CCOCC5)cccc3-4)s2)C1` (centres unmarked) (as salt: TFA) [Example CLXXX, 3-(5-(3-(N,N-dimethylamino)pyrrolidinocarbonyl)-2-thienyl)-5-(morpholinocarbamoylamino)indeno[1,2-c]pyrazol-4-one], the melting point is 216 °C. Then `COc1ccc(-c2[nH]nc3c2C(=O)c2c(NC(=O)CN4CCN(C)CC4)cccc2-3)cc1` [Example XXVII, 3-(4-methoxyphenyl)-5-(4-methylpiperazinoacetamido)indeno[1,2-c]pyrazol-4-one], with greater than 300 °C; and `CN(C)C1CCN(c2ccc(-c3[nH]nc4c3C(=O)c3c(NC(=O)NN5CCOCC5)cccc3-4)cc2)CC1` (as salt: TFA) [Example CCXLVIII, 3-(4-(4-(N,N-dimethylamino)piperidino)phenyl)-5-(morpholinocarbamoylamino)indeno[1,2-c]pyrazol-4-one], with 258 °C. Consider `CC(C)N1CCN(c2ccc(-c3[nH]nc4c3C(=O)c3c(NC(=O)NN5CCN(C)CC5)cccc3-4)cc2)CC1` (as salt: TFA) [Example CCXXVI, 3-(4-(4-isopropylpiperazino)phenyl)-5-((4-methylpiperazino)carbamoylamino)indeno[1,2-c]pyrazol-4-one], for which the melting point turned out to be 272 °C. `CC(C)(C)OC(=O)N1CCN(C(=O)N2CCC(c3[nH]nc4c3C(=O)c3c(NC(=O)NN5CCOCC5)cccc3-4)CC2)CC1` (as salt: TFA) [Example CCLXXI, 3-(1-(4-(t-butoxycarbonyl)piperazinocarbonyl)piperidin-4-yl)-5-(morpholinocarbamoylamino)indeno[1,2-c]pyrazol-4-one] registered a melting point of 231 °C. Regarding `CC(C)c1[nH]nc2c1C(=O)c1c(NC(N)=O)cccc1-2` [Example XCIII, 3-(i-propyl)-5-(carbamoylamino)indeno[1,2-c]pyrazol-4-one], the melting point is greater than 250 °C. Consider `CC(C)(C)OC(=O)Nc1ccc(C(=O)N2CCC(c3[nH]nc4c3C(=O)c3c(NC(=O)NN5CCOCC5)cccc3-4)CC2)cc1` [Example CCXCIX, 3-(1-(4-(t-butoxycarbonylamino)phenylcarbonyl)piperidin-4-yl)-5-(morpholinocarbamoylamino)indeno[1,2-c]pyrazol-4-one], for which the melting point stood at 212 °C. Regarding `NC(=O)Nc1cccc2c1C(=O)c1c-2n[nH]c1-c1ccc(N2CCNCC2)cc1` (as salt: TFA) [Example CCXII, 3-(4-piperazinophenyl)-5-(carbamoylamino)indeno[1,2-c]pyrazol-4-one], the melting point was 257 °C. For `O=C(Nc1cccc2c1C(=O)c1c-2n[nH]c1-c1ccc(N2CCNCC2)cc1)NN1CCN(CCO)CC1` (as salt: TFA) [Example CCXXVIII, 3-(4-piperazinophenyl)-5-((4-(2-hydroxyethyl)piperazino)carbamoylamino)indeno[1,2-c]pyrazol-4-one] the value was 279 °C.
